In general, IC50 refers to the concentration needed to halve the response being measured. What is called Cmax is the peak of the concentration-time curve. As a reminder, the Hill coefficient is a measure of the steepness of the concentration-response curve.

Each structure is given as a SMILES string. Several values for one entry are separate records, joined by “and”; a condition that tells them apart may be missing. Equal values may be shown once. Entries after “also recorded” stand apart in the source; their conditions may differ. Read-outs that look alike come from different tables or passages of the source. Where only a bound is given, the exact number is not on record here.

Consider ten compounds from patent US20240127967A1.

Series [1] relates to EBOV/Mak. Particulars: cited from earlier work.
The conditions of series [2]: in vivo, cited from earlier work.
For series [3], the system named is EBOV. Particulars: mouse, in vivo; cited from earlier work.
Series [4] concerns EBOV/Mak. The series is described as follows: microbe, parasite or virus in culture. It counts as cell-based, Ebola virus. Particulars: for IC50: Zaire ebolavirus.
Another series deals with VSV-EBOV-GPΔ-Luc. It counts as cell-based, VSV pseudovirus bearing EBOV GP.
A short description of series [5]: Pharmacokinetic modeling of human oral PK data (Monolix). Also noted: species or system humans. Particulars: for V: fitted PK model parameter (volume of plasma/serum compartment); for k: fitted elimination rate.
Series [6] is described as follows: State of V8 preparations after storage at 4° C. It counts as physicochemical. Particulars: stored at 4° C.
For series [7] the following is noted: female, C57BL/6, mouse, in vivo; for Cmax: po.
For series [8], the system named is EBOV. The conditions noted are these: read-out: IC50 (HepG2); cited from earlier work.
Another series concerns MARV. Particulars: mouse, in vivo; cited from earlier work.
A further series in a line: in vivo. The conditions noted are these: mouse, ip, 12 mg/kg.
Series [9] in a line: Solubility in ten test vehicles. The conditions noted are these: for solubility in Vehicle #9: 3% NMP/45% PEG300/12% ethanol/40% sterile water; for solubility in Vehicle #9 / solubility in Vehicle #7 / solubility in Vehicle #6 / solubility in Vehicle #10 / solubility in Vehicle #8 / solubility in Vehicle #5 / solubility in Vehicle #4 / solubility in Vehicle #3: Bepridil 25, Sertraline 3, toremifene 8.4 mg/ml; for solubility in Vehicle #7: 5% NMP/95% PEG 300; for solubility in Vehicle #6: 10% Solutol/90% PEG 400; for solubility in Vehicle #2: 20% Captisol in water; for solubility in Vehicle #2 / solubility in Vehicle #1: Bepridil 25 mg/ml, Sertraline 3 mg/ml, toremifene 8.4 mg/ml; for solubility in Vehicle #10: 40% Propylene Glycol/30% Solutol HS 15/30% Sterile Water; for solubility in Vehicle #8: 80% PEG 400/20% of 0.1% Tween-20 in Water; for solubility in Vehicle #1: Aqueous Suspension Vehicle; for solubility in Vehicle #5: PEG 400; for solubility in Vehicle #4: Vegetable Oil; for solubility in Vehicle #3: […] PEG 400/[…] Tween 20/25% Capmul MCM NF.

The nature of series [10]: Tolerability of drugs in V8 in mice. Particulars: in V8, once daily PO, eleven consecutive days; bepridil 500, toremifene 200, sertraline 60 and 100 mg/kg.
Another series relates to EBOV/Mak-005. The conditions noted are these: rhesus monkey, in vivo; cited from earlier work.
Series [11] deals with EBOV. Also noted: species or system mice. The conditions noted are these: mouse, in vivo.
The mark [12] stands for this setting: Huh-7, read-out: IC50 (average).

As for `Cc1cccc(/C=N/Nc2cc(N3CCOCC3)nc(OCCc3ccccn3)n2)c1` [Apilimod], the IC50 in the series with EBOV/Mak [1] (read-out: IC50 (Huh7)) was 0.17 µM. Also, in [2] (human, po), the Cmax was 260 nM.

Turning to `O=C1CCc2ccc(OCCCCN3CCN(c4cccc(Cl)c4Cl)CC3)cc2N1` [Aripiprazole], in the series on EBOV [3], the “Survival (%)” value is 10 ^1%; the “adverse effect in treated infected mice” value is “^1 Mice became extremely somnolent, thwarting eating and drinking, which likely contributed to low survival”.

`CC[C@H]1OC(=O)[C@H](C)[C@@H](O[C@H]2C[C@@](C)(OC)[C@@H](O)[C@H](C)O2)[C@H](C)[C@@H](O[C@@H]2O[C@H](C)C[C@H](N(C)C)[C@H]2O)[C@](C)(O)C[C@@H](C)CN(C)[C@H](C)[C@@H](O)[C@]1(C)O` [Azithromycin]: the IC50 in the series with EBOV/Mak [1] (read-out: IC50 (Huh7)) is 10.8 µM. In addition, in the series with EBOV [3], the “Survival (%)” value is recorded as 10, 30, 60 ^2%.

Take `CC(C)COCC(CN(Cc1ccccc1)c1ccccc1)N1CCCC1` (stereo not shown) [Bepridil]: the “possible loss of potency on storage in V8” value with EBOV/Mak [4] is recorded as less than 2 fold. Also, half-maximal inhibition with EBOV/Mak [4] (Huh-7) (IC50) was put at 4.5 µM. Moreover, the IC50 with EBOV/Mak [4] (setting [12]) stood at 4.53 µM. In addition, the “stability of inhibitory activity of stock in V8” value in the series on VSV-EBOV-GPΔ-Luc is reported as “maintained inhibitory activity over 15 days”. Moreover, in series [5] (fitted PK model parameter), the Tk0 was determined as 0.0873 days, the k12 came out at 6.71 per day and the k21 is on record as 1.61 per day. Also, in [5], the V was determined as 25.2 and the k is 0.348 per day. Besides, the single drug effect result with Ebola virus is recorded as “exceeds 80%”. For the same compound, in [6], the “state of preparation in Vehicle 8 when removed from the refrigerator” value (shortened to “state of preparation”) was “always solid (as if it had frozen) and contained precipitate”. The Hill coefficient in the series on EBOV/Mak [1] was 4.859. Moreover, in the series with EBOV/Mak [1] (read-out: IC50 (Huh7)), the IC50 was 5.86 µM. The IC50 in the series with EBOV/Mak [1] (read-out: IC50) was 5.86 µM. Moreover, in [7], the “Cmax obtained relative to prediction, fold higher” value is roughly 1.8 fold and the Cmax was roughly 3000 nM. In the series with EBOV [8], the IC50 is 3.21 µM. Besides, the “Survival (%)” value with MARV is listed as 90 ^4%. In “in vivo”, this compound showed a Cmax of 3300 nM. Also, the “Survival (%)” value in the series with EBOV [3] is 100% and 100 ^3%. Besides, in series [2], the peak concentration is recorded as 3.63 (±1.48) μM and the trough concentration is on record as 2.60 (±1.21) μM. Besides, in series [9], the “solubility in Vehicle #9” value is listed as “Clear solution”, the “solubility in Vehicle #7” value is recorded as “Clear solution”, the “solubility in Vehicle #6” value is given as “Clear solution” and the “solubility in Vehicle #2” value is recorded as “Slightly hazy”. Further, in series [9], the “solubility in Vehicle #10” value is on record as “Clear solution”, the “solubility in Vehicle #8” value was “Clear solution”, the “solubility in Vehicle #1” value was “Suspension” and the “solubility in Vehicle #5” value is recorded as “Clear solution”. Besides, in [9], the “solubility in Vehicle #4” value is on record as “Clear solution” and the “solubility in Vehicle #3” value is reported as “Clear solution”. Moreover, in series [10], the tolerability in mice entry is recorded as “well tolerated”.

In series [5] (fitted PK model parameter), `CN[C@H]1CC[C@@H](c2ccc(Cl)c(Cl)c2)c2ccccc21` [Sertraline] had a Tlag of 0.0976 days. The compound further gave a V in series [5] of 909. The “state of preparation” value in series [6] is “no precipitates, not solid”. In addition, in the series on EBOV/Mak [1], the Hill coefficient is 1.628. For the same compound, in series [7], the “Cmax obtained relative to prediction, fold higher” value is roughly 1.2 fold and the Cmax is roughly 1200 nM. Besides, the efficacy in macaques entry with EBOV/Mak-005 is “not effective; also recorded: did not protect”. For the same compound, the “Survival (%)” value in the series on EBOV [3] was 70% and 70 ^ %. Besides, in [9], the “solubility in Vehicle #9” value is “Clear solution”, the “solubility in Vehicle #7” value was “Clear solution”, the “solubility in Vehicle #6” value was “Clear solution” and the “solubility in Vehicle #2” value is on record as “Clear solution”. Besides, in series [9], the “solubility in Vehicle #10” value was “Clear solution”, the “solubility in Vehicle #8” value is recorded as “Clear solution”, the “solubility in Vehicle #1” value was “Suspension” and the “solubility in Vehicle #5” value is on record as “Clear solution”. Further, in series [9], the “solubility in Vehicle #4” value was “Clear solution” and the “solubility in Vehicle #3” value is “Clear solution”. The tolerability in mice entry in series [10] was “well tolerated”.

For the compound `CN(C)CCOc1ccc(/C(=C(/CCCl)c2ccccc2)c2ccccc2)cc1` [Toremifene], the IC50 in the series with EBOV/Mak [4] (setting [12]) was 1.83 µM. Moreover, in the series with VSV-EBOV-GPΔ-Luc, the “stability of inhibitory activity of stock in V8” value is given as “began to lose activity after about 1 week”. In addition, in the series on EBOV [11], the “approximated protection of infected mice” value is roughly 50% and the reasoned survival was roughly 7%. For the same compound, in the series with EBOV [11] (po, 200 mg/kg), the estimated survival is reported as roughly 50%. In series [5] (fitted PK model parameter), the k12 is 4.28 per day and the k21 is 0.992 per day. In series [5], this compound registered a V of 354 and a k of 0.000198 per day. The compound further returned a ka in [5] (fitted absorption rate) of 16.6 per day. The “state of preparation” value in series [6] was “no precipitates, not solid”. Also, the Hill coefficient in the series on EBOV/Mak [1] is recorded as 3.057. The IC50 with EBOV/Mak [1] (read-out: IC50 (Huh7)) was 3.64 µM. Moreover, in the series with EBOV/Mak [1] (read-out: IC50), the IC50 is 3.64 µM. In addition, in [7], the “Cmax obtained relative to prediction, fold lower” value was roughly 1.4 fold and the Cmax is roughly 4400 nM. In addition, in the series with EBOV [8], the IC50 is 0.03 µM. Further, in the series on EBOV [3], the “Survival (%)” value was 50% and 50 ^ %. For the same compound, in [2], the peak concentration is on record as 1.18 (±0.42) μM and the trough concentration is 0.29 µM. Besides, in series [9], the “solubility in Vehicle #9” value was “Clear solution”, the “solubility in Vehicle #7” value is “Clear solution”, the “solubility in Vehicle #6” value is recorded as “Suspension” and the “solubility in Vehicle #2” value is recorded as “Clear solution”. Also, in [9], the “solubility in Vehicle #10” value was “Insoluble”, the “solubility in Vehicle #8” value is reported as “Clear solution”, the “solubility in Vehicle #1” value was “Suspension” and the “solubility in Vehicle #5” value is reported as “Suspension”. Besides, in series [9], the “solubility in Vehicle #4” value is “Non-” and the “solubility in Vehicle #3” value is recorded as “Suspension”. Also, the tolerability in mice result in series [10] is on record as “well tolerated”.

Compound `CCOC(=O)c1c(CSc2ccccc2)n(C)c2cc(Br)c(O)c(CN(C)C)c12` [arbidol] yielded a baseline efficacy in the series on SARS-CoV-2 of 36%. Besides, in series [2], the peak concentration is listed as 0.77 (±0.23) μM and the trough concentration was 0.32 (±0.09) μM.

In the case of `CC(=O)c1ccc2c(c1)N(CCCN1CCC(CCO)CC1)c1ccccc1S2` [piperacetazine, Piperacetazine], the values for the IC50 in the series on EBOV/Mak [1] (read-out: IC50 (Huh7)) and in the series with EBOV [8] were 7.58 µM and 3.3 µM, respectively.

Consider `CCC(CC)COC(=O)[C@H](C)N[P@](=O)(OC[C@H]1O[C@@](C#N)(c2ccc3c(N)ncnn23)[C@H](O)[C@@H]1O)Oc1ccccc1` [remdesivir], for which the baseline efficacy with SARS-CoV-2 turned out to be 60%. For the same compound, in [2], the “median t1/2” value is “≈ 1 hour”, the peak concentration is 5.34 (±0.03) μM and the “time of peak concentration” value is 1.03 (±0.01) hour.

Consider `O=C(Nc1ncc([N+](=O)[O-])s1)c1ccccc1O` [tizoxanide], for which, in series [2], the peak concentration was 17.34 (±13.61) and the trough concentration is recorded as 3.02 (±7.43).
